According to PubChem BioAssay AID1671426:

Molecular target: Proto-oncogene tyrosine-protein kinase Src (Homo sapiens) (UniProt P12931)
Assay: PubChem AID 1671426
Conditions: Z'-LYTE FRET kinase activity, recombinant SRC N1

Sequence of Proto-oncogene tyrosine-protein kinase Src (Homo sapiens) (P12931 whole entry, looked up): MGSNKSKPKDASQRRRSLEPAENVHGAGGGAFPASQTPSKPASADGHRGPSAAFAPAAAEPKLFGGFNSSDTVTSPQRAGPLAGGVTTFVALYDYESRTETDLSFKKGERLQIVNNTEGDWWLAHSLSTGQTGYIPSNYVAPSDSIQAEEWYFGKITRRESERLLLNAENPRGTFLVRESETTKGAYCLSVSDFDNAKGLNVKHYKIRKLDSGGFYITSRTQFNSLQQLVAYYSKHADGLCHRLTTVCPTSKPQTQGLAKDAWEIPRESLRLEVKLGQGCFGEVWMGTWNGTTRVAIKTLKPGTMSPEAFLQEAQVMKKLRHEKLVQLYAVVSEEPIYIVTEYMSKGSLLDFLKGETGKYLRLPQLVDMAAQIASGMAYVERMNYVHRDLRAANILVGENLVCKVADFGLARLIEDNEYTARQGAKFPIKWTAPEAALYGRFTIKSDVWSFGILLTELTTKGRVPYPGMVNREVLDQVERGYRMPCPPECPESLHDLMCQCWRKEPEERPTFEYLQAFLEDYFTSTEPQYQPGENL

COc1cc2ncnc(Nc3cccc(Cl)c3)c2cc1OC
IC50: 1980 nM
